Reference: patent publication US20260144797A1, “METHODS OF REDUCING OR PREVENTING METASTASES” (FOGHORN THERAPEUTICS INC., priority 2022, published 2026)

Tests used:
Assay type in all cases: in vivo
[1] = test system: uveal melanoma (UM) CDX models MP-41 and MP-46; test: Differential gene expression by RNA-seq in UM CDX models (Example 1); conditions: MP-41 and MP-46 CDX; 0.5-3 mpk QD or BID; 5 days; RNA-seq (FIG. 3)
Method: Uveal melanoma can be classified into Class 1 or Class 2 tumors based on the DecisionDx®-UM gene expression profiling (GEP) test, a widely used prognostic test to predict individual risk of metastasis in patients with uveal melanoma. Class 1 and 2 tumors are associated with low and high risk of metastasis, respectively. Gene expression profiling (GEP) Class 2 (dark blue), GEP Class 1 (light blue), PRAME (green), and BAP1 (orange) expression were measured in three uveal melanoma (UM) CDX models: 92-1, MP-41, and MP-46 (FIG. 2). GEP class 1 and GEP class 2 are defined in FIG. 1.
Differential gene expression was measured by RNA-seq in two uveal melanoma (UM) CDX models: MP-41 and MP-46 (FIG. 3). UM CDX model MP-41 was divided into four cohorts—cohort one was treated with 0.5 mpk of Compound A twice a day (BID), cohort two was treated with 1 mpk of Compound A once a day (QD), cohort three was treated with 1 mpk of Compound A twice a day, and cohort 4 was treated with 2 mpk of Compound A once a day. UM CDX model MP-46 was divided into six cohorts —cohort one was treated with 0.5 mpk of Compound A twice a day (BID), cohort two was treated with 1 mpk of Compound A once a day (QD), cohort three was treated with 0.75 mpk of Compound A twice a day, cohort 4 was treated with 1.5 mpk of Compound A once a day, cohort five was treated with 1.5 mpk of Compound A twice a day, and cohort six was treated with 3 mpk of Compound A twice a day. All treatments ended at 5 days, and animals were sacrificed. GEP Class 1 (green) comprises 8 genes that are high in Class 1 (low risk), and GEP Class 2 (blue) comprises 4 genes that are high in Class 2 (higher risk). PRAME (grey) positivity is associated with poor prognosis in several malignancies, including UM.

[2] = test system: uveal melanoma (UM) CDX model MP-41; test: Differential gene expression by RNA-seq in UM CDX model MP-41 (Example 2); conditions: MP-41 CDX; 0.5-2 mpk QD or BID; 4 or 5 days; RNA-seq (FIG. 4)
Method: Differential gene expression was measured by RNA-seq in uveal melanoma (UM) CDX model: MP-41 (FIG. 4). This CDX model is a BAP1 intact but aggressive uveal melanoma model. UM CDX model MP-41 was divided into four cohorts—cohort one was treated with 0.5 mpk of Compound A twice a day (BID), cohort two was treated with 1 mpk of Compound A once a day (QD), cohort three was treated with 1 mpk of Compound A twice a day, and cohort 4 was treated with 2 mpk of Compound A once a day. All treatments ended at 4 or 5 days, and animals were sacrificed.

[3] = test system: uveal melanoma (UM) CDX models 92-1, MP-41, and MP-46; test: Differential gene expression by RNA-seq, MITF/SOX10 pathway (Example 3); conditions: 92.1 and MP-46: 1.5 mpk QD, 6 days; MP-41: 2 mpk daily, 4 days; RNA-seq (FIG. 5)
Method: Differential gene expression was measured by RNA-seq in three uveal melanoma (UM) CDX models: 92-1, MP-41, and MP-46 (FIG. 5 and FIG. 6). UM CDX models 92.1 and MP-46 were treated with 1.5 mpk of Compound A, daily (QD), for 6 days, and then animals were sacrificed (FIG. 5). UM CDX model MP-41 was treated with 2 mpk of Compound A, daily, for 4 days, and then animals were sacrificed (FIG. 5). Expression of SOX10, MITF (PD markers) and their downstream targets: melanin pathway markers MLANA, PMEL, and TYR were analyzed. Cyclin D1 is a cell proliferation marker, and BRM and BRG1 were analyzed for candidate selection.

MP-41 CDX tumor = test: Immunohistochemistry of MP-41 CDX tumor slices
Method: Representative MP-41 CDX tumor slices were analyzed after 5 days of treatment with 2 mpk of Compound A (OnTx) or a Vehicle (Veh), administered daily (FIGS. 7A and 7B).

[4] = MP-41 xenograft studies (FIGS. 7A and 7B)

Question: `COC[C@@H](NC(=O)c1ccn(S(C)(=O)=O)c1)C(=O)Nc1nc(-c2cccc(N3C[C@@H](C)O[C@@H](C)C3)n2)cs1` (stereo in doubt) [Compound A, N-(1-((4-(6-(2,6-dimethylmorpholino)pyridin-2-yl)thiazol-2-yl)amino)-3-methoxy-1-oxopropan-2-yl)-1-(methylsulfonyl)-1H-pyrrole-3-carboxamide] was tested. Which “DecisionDx-UM Gene Expression Profile (GEP)” value [1] did it give?
Answer: positive shift

Question: And the PRAME expression [1]?
Answer: decrease

Question: What about the “higher risk profile Class 2 genes expression” value [1] of the same compound?
Answer: decrease

Question: What about the BAP1 expression [2] of the same compound?
Answer: subtle upregulation

Question: What about the GDF15 expression [2] of the same compound?
Answer: dose-dependent downregulation

Question: What about the PROS1 expression [2] of the same compound?
Answer: dose-dependent downregulation

Question: And the MITF expression [3]?
Answer: sustained downregulation

Question: What about the SOX10 expression [3] of the same compound?
Answer: sustained downregulation

Question: What about the “melanoma-specific downstream targets of MITF and SOX10, expression” value [3] of the same compound?
Answer: sustained downregulation

Question: And the “proliferation marker Cyclin D1 (IHC)” value (MP-41 CDX tumor; MP-41 CDX, 2 mpk daily, 5 days (FIGS. 7A and 7B))?
Answer: decreases with treatment

Question: And the “melanin pathway markers downstream of MITF/SOX10 signaling (IHC)” value (MP-41 CDX tumor; [4])?
Answer: Decrease

Question: And the “proliferation markers (IHC)” value (MP-41 CDX tumor; [4])?
Answer: Decrease
